For 21 molecules, IC50 results are on record in ChEMBL document CHEMBL1833829, “Development of 2-substituted-N-(naphth-1-ylmethyl) and N-benzhydrylpyrimidin-4-amines as dual cholinesterase and Aβ-aggregation inhibitors: Synthesis and biological evaluation” (Bioorg Med Chem Lett, 2011).

The target in experiment [1] is T1, Cholinesterase (Equus caballus, UniProt P81908).
Description: (§1) Inhibition of equine BuChE by Ellman's method
Another experiment concerns the target Acetylcholinesterase (Homo sapiens, UniProt P22303).
Experiment [2] concerns the target T1, Cholinesterase. This is another data set of the same source.
Description: as §1

Acetylcholinesterase, sequence (P22303 whole entry): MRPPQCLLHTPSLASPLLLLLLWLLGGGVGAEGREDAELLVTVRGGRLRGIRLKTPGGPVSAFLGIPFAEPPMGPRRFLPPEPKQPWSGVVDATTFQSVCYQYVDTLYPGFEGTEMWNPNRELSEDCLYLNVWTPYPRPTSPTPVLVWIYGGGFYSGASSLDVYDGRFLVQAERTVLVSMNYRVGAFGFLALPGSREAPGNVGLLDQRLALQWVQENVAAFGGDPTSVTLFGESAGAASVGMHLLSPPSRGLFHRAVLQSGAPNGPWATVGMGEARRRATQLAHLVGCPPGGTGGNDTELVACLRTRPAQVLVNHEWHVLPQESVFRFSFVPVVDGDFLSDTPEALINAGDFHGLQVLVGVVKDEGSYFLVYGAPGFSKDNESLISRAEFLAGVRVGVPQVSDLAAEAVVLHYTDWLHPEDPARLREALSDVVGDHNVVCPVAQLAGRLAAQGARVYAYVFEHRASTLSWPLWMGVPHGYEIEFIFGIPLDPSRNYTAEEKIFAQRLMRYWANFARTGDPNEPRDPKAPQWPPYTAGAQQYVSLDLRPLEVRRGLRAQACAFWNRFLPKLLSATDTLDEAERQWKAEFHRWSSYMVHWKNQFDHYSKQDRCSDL
T1 sequence (P81908 whole entry): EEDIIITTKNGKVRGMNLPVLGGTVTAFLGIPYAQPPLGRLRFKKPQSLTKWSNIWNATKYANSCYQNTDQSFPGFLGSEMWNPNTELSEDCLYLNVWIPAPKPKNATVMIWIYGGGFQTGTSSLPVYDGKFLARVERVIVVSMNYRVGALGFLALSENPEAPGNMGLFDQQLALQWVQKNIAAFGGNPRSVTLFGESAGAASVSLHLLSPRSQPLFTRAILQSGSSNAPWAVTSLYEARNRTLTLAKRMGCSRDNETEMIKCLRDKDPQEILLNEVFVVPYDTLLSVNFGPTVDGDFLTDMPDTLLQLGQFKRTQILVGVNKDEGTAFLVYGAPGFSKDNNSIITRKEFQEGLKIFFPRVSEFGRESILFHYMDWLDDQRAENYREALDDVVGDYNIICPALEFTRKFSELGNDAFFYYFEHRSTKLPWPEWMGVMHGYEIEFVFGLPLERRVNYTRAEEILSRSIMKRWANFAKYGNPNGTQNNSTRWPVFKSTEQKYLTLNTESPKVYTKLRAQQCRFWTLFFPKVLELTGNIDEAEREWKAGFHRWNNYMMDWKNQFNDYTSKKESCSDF
Description for Acetylcholinesterase: Inhibition of human AChE by Ellman's assay

For `CC1CCN(c2nccc(NCc3cccc4ccccc34)n2)CC1`, the IC50 on Cholinesterase [1] stood at 2200 nM.

Consider `CC(C)N1CCN(c2nccc(NCc3cccc4ccccc34)n2)CC1`, for which the results for the IC50 on Acetylcholinesterase and on Cholinesterase [2] were 15.8 µM and 7.6 µM, respectively.

On to `CC(C)C1CCN(c2nccc(NCc3cccc4ccccc34)n2)CC1`, for which the 50% inhibitory concentration (IC50) was 16.7 µM against Acetylcholinesterase and 9.1 µM on Cholinesterase [2].

Take `CCCN1CCN(c2nccc(NCc3cccc4ccccc34)n2)CC1`: the IC50 against Acetylcholinesterase turned out to be 19 µM; against Cholinesterase [2], 18.1 µM.

With `c1ccc2c(CNc3ccnc(N4CCN(C5CCCCC5)CC4)n3)cccc2c1`, the 50% inhibitory concentration (IC50) against Acetylcholinesterase was 8 µM; at Cholinesterase [2], 3.9 µM. The matching figures for `CC(=O)N1CCN(c2nccc(NCc3cccc4ccccc34)n2)CC1`: 13.8 µM and 32.9 µM.

Turning to `CC(C)(C)OC(=O)N1CCN(c2nccc(NCc3cccc4ccccc34)n2)CC1`, the IC50 was 50.8 µM on Acetylcholinesterase and above 100 µM against Cholinesterase [2].

On to `c1ccc2c(CNc3ccnc(N4CCNCC4)n3)cccc2c1`, for which the figures for the IC50 against Acetylcholinesterase and against Cholinesterase [2] were 17.5 µM and 25.4 µM, respectively. For `OCCN1CCN(c2nccc(NCc3cccc4ccccc34)n2)CC1` the same measures were 9.8 µM and 17.9 µM. For `COCCN1CCN(c2nccc(NCc3cccc4ccccc34)n2)CC1` the same measures were 11.7 µM and 26.5 µM. For `CN1CCN(c2nccc(NC(c3ccccc3)c3ccccc3)n2)CC1` the same measures were 13.7 µM and 23.8 µM.

Consider `CC1CCN(c2nccc(NC(c3ccccc3)c3ccccc3)n2)CC1`, for which the IC50 against Acetylcholinesterase was 32.2 µM; on Cholinesterase [2], 33.8 µM. The matching figures for `CC(C)N1CCN(c2nccc(NC(c3ccccc3)c3ccccc3)n2)CC1`: 20.3 µM and 9.7 µM.

In the case of `CC(C)C1CCN(c2nccc(NC(c3ccccc3)c3ccccc3)n2)CC1`, the IC50 at Acetylcholinesterase came out at 42.5 µM; against Cholinesterase [2] it was 87 µM. Regarding `CCCN1CCN(c2nccc(NC(c3ccccc3)c3ccccc3)n2)CC1`, the IC50 on Acetylcholinesterase is 14.6 µM; on Cholinesterase [2], 17.5 µM. For `c1ccc(C(Nc2ccnc(N3CCN(C4CCCCC4)CC3)n2)c2ccccc2)cc1` the same measures were 10 µM and 7.6 µM. The matching figures for `CC(=O)N1CCN(c2nccc(NC(c3ccccc3)c3ccccc3)n2)CC1`: 29 µM and above 100 µM. For `CC(C)(C)OC(=O)N1CCN(c2nccc(NC(c3ccccc3)c3ccccc3)n2)CC1` the same measures were above 100 µM and above 100 µM. `c1ccc(C(Nc2ccnc(N3CCNCC3)n2)c2ccccc2)cc1`: the IC50 against Acetylcholinesterase was 31.3 µM; against Cholinesterase [2], above 100 µM. With `OCCN1CCN(c2nccc(NC(c3ccccc3)c3ccccc3)n2)CC1`, the IC50 against Acetylcholinesterase was determined as 21.6 µM; against Cholinesterase [2], 59.5 µM. The matching figures for `COCCN1CCN(c2nccc(NC(c3ccccc3)c3ccccc3)n2)CC1`: 39.2 µM and 28.4 µM.

As usually defined, the IC50 is the concentration at which inhibition is half-maximal. Lower therefore signals inhibition by little substance.
